Results taken from ChEMBL document CHEMBL1147779, “N-Hydroxyurea as zinc binding group in matrix metalloproteinase inhibition: mode of binding in a complex with MMP-8” (Bioorg Med Chem Lett, 2006).

How the values were obtained:
Stromelysin-1 [1] = molecular target: T1, Stromelysin-1 (Homo sapiens, UniProt P08254); experiment: Inhibitory activity against MMP3
Target sequence in this assay (P08254 whole entry): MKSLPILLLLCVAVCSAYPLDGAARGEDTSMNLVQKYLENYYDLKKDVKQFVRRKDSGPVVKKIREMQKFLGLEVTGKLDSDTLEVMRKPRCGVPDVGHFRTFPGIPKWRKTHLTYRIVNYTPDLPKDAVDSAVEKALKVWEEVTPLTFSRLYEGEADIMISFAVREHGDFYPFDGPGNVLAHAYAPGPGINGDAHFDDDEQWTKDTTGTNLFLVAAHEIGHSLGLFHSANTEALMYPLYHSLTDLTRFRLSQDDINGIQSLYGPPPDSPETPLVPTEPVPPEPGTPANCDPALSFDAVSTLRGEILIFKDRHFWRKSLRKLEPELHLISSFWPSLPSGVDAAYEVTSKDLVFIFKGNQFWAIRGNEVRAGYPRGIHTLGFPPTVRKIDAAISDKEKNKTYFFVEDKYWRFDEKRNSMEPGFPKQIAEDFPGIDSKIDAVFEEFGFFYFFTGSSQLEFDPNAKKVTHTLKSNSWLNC

[2] = molecular target: 72 kDa type IV collagenase (Homo sapiens, UniProt P08253); experiment: Inhibitory activity against MMP2
Neutrophil collagenase = Neutrophil collagenase (Homo sapiens, UniProt P22894); experiment: Inhibitory activity against MMP8
Stromelysin-1 [3] = molecular target: T1, Stromelysin-1; experiment: Inhibitory activity against MMP3 at 120 uM
Target sequence in this assay (P08254 100-477 limits assumed): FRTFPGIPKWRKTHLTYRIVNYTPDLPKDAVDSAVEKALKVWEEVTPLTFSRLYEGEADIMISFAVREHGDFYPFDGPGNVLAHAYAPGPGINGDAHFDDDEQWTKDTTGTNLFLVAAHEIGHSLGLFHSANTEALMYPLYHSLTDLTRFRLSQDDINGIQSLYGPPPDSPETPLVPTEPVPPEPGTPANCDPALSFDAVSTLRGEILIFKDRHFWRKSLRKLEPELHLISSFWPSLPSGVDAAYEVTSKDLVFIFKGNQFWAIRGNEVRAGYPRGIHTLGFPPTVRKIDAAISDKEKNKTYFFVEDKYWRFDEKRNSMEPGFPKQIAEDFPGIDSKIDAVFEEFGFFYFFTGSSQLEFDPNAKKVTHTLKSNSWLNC

Sequence of 72 kDa type IV collagenase (P08253 whole entry): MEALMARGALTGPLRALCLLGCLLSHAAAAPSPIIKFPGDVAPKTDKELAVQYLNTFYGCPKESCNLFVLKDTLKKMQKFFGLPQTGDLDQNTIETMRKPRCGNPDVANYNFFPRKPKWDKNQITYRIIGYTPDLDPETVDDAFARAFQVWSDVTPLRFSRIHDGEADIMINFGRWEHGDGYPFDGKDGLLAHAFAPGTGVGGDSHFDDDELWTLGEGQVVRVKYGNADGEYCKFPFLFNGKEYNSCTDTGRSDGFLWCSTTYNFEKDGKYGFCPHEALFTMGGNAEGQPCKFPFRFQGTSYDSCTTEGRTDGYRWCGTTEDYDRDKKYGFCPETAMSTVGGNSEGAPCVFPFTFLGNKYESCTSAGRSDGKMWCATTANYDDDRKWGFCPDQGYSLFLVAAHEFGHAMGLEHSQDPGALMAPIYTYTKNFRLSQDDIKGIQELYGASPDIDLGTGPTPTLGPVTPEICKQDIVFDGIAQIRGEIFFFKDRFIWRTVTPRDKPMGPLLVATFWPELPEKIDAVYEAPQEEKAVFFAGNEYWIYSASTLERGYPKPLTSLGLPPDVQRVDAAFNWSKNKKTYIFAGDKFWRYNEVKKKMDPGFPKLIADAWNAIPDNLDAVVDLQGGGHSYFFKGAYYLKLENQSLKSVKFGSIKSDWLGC
Sequence of Neutrophil collagenase (P22894 whole entry): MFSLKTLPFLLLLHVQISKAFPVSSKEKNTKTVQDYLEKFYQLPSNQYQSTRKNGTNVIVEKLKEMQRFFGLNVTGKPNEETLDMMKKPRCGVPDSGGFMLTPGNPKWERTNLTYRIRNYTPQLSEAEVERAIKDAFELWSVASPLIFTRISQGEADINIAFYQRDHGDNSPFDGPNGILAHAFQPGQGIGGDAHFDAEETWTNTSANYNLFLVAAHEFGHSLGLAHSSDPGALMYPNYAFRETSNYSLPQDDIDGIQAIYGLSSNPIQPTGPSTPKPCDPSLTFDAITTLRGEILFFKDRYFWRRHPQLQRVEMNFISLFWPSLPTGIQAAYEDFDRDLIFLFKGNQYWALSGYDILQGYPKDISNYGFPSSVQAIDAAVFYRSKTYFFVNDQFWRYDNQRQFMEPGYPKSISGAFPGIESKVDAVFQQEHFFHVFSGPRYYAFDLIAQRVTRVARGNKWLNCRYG

Row | IC50 (Stromelysin-1 [1]) [µM] | IC50 [2] [µM] | IC50 (Neutrophil collagenase) [µM] | inhibition (Stromelysin-1 [3]) [%] | SMILES
1 | 380 | 685 | 1000 |  | CN(CCc1ccc(Oc2ccccc2)cc1)C(=O)NO
2 |  | > 120 | > 120 | 22 | N#Cc1ccc(-c2ccc(OCCNC(=O)NO)cc2)cc1
3 | 200 | 58 |  |  | CN(CCOc1ccc(-c2ccc(C#N)cc2)cc1)C(=O)NO
4 | > 380 | > 380 | > 380 |  | O=C(NO)NCCc1ccc(Oc2ccccc2)cc1
